Results as given in patent US8895547B2, “Substituted phenyl-oxathiazine derivatives, method for producing them, drugs containing said compounds and the use thereof” (Sanofi, priority 2011, dated 2014).

Molecular target: T1, human 11β-HSD1 (Homo sapiens, UniProt P28845)
T1 construct: host or cells: microsome fraction
Experiment: Enzymatic 11beta-HSD1 test (SPA-based detection)
Type: biochemical
Details: human 11β-HSD1 microsome fraction, [1,2-3H]-cortisone, NADPH, 37° C. 1 hour
How it was run: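 Scintillation proximity detection: anti-cortisol antibody on SPA-PVT beads captured tritiated cortisol. The stop mix also contained 0.01 mM SSR110887 and was equilibrated 1 h at room temperature before counting. Cortisol came from [1,2-3H]-cortisone ([…]), turned over by human 11β-HSD1 microsomal protein (0.2 µg) with 0.25 mM NADPH in HEPES buffer, 37 °C, 1 h.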

T1 sequence (P28845 whole entry): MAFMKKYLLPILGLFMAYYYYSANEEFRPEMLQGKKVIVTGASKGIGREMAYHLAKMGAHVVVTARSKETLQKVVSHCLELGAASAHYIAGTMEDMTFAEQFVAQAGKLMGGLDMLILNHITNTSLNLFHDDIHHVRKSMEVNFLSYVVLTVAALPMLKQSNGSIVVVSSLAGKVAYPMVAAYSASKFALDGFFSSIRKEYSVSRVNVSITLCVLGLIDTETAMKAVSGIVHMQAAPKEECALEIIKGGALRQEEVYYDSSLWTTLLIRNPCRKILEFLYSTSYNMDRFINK

Row | Compound | IC50 [nM]
1 | C[C@H](NC1=NS(=O)(=O)[C@H](c2ccc(-c3cccc(C(N)=O)c3)cc2)C(C)(C)O1)c1ccccc1F [Example 175, 4′-{(R)-2-[(S)-1-(2-fluorophenyl)-ethylamino]-6,6-dimethyl-4,4-dioxo-5,6-dihydro-4H-4lambda6-[1,4,3]oxathiazin-5-yl}-biphenyl-3-carboxamide] | 20
2 | C[C@H](NC1=NS(=O)(=O)C(c2ccc(-c3cccc(C(N)=O)c3)nc2)C(C)(C)O1)c1ccccc1F (stereo partly drawn) [Example 176, 3-(5-{2-[(S)-1-(2-fluor-phenyl)-ethylamino]-6,6-odimethyl-4,4-dioxo-5,6-dihydro-4H-4lambda6-[1,4,3]oxathiazin-5-yl}-pyridin-2-yl)-benzamide] | 6
3 | C[C@H](NC1=NS(=O)(=O)[C@@H](c2ccc(-c3cncc(C(N)=O)c3)cc2)C(C)(C)O1)c1ccccc1F [Example 177, 5-(4-{(S)-2-[(S)-1-(2-fluorophenyl)-ethylamino]-6,6-dimethyl-4,4-dioxo-5,6-dihydro-4H-4lambda6-[1,4,3]oxathiazin-5-yl}-phenyl)-nicotinamide] | 17
4 | C[C@H](NC1=NS(=O)(=O)[C@H](c2ccc(-c3cncc(C(N)=O)c3)cc2)C(C)(C)O1)c1ccccc1F [Example 178, 5-(4-{(R)-2-[(S)-1-(2-fluorophenyl)-ethylamino]-6,6-dimethyl-4,4-dioxo-5,6-dihydro-4H-4lambda6-[1,4,3]oxathiazin-5-yl}-phenyl)-nicotinamide] | 3
5 | C[C@H](NC1=NS(=O)(=O)C(c2cccc(C3CCN(C)CC3)c2)C(C)(C)O1)c1ccccc1F (stereo partly drawn) [Example 179, {6,6-Dimethyl-5-[3-(1-methyl-piperidin-4-yl)-phenyl]-4,4-dioxo-5,6-dihydro-4H-4lambda6-[1,4,3]oxathiazin-2-yl}-[(S)-1-(2-fluorophenyl)-ethyl]-amine] | 34
6 | C[C@H](NC1=NS(=O)(=O)C(c2ccc(-c3cccc(C(N)=O)c3)nc2)C(C)(C)O1)c1ccccc1F (stereo partly drawn) [Example 180, 3-(5-{2-[(S)-1-(2-fluorophenyl)-ethylamino]-6,6-dimethyl-4,4-dioxo-5,6-dihydro-4H-41ambda6-[1,4,3]oxathiazin-5-yl}-pyridin-2-yl)-benzamide] | 10
7 | C[C@H](NC1=NS(=O)(=O)C(c2ccc(-c3cccc(C(N)=O)c3)nc2)C(C)(C)O1)c1ccccc1F (stereo partly drawn) [Example 181, 3-(5-{2-[(S)-1-(2-fluorophenyl)-ethylamino]-6,6-dimethyl-4,4-dioxo-5,6-dihydro-4H-4lambda6-[1,4,3]oxathiazin-5-yl}-pyridin-2-yl)-benzamide] | 7
8 | CC1(C)OC(N[C@@H](CCO)c2ccccc2F)=NS(=O)(=O)[C@H]1c1ccc(-c2ccnc(C#N)c2)cc1 [Example 184, 4-(4-{(S)-2-[(S)-1-(2-fluorophenyl)-3-hydroxy-propylamino]-6,6-dimethyl-4,4-dioxo-5,6-dihydro-4H-4lambda6-[1,4,3]oxathiazin-5-yl}-phenyl)-pyridine-2-carbonitrile] | 3
9 | CC1(C)OC(N[C@@H](CCO)c2ccccc2F)=NS(=O)(=O)[C@@H]1c1ccc(-c2ccnc(C#N)c2)cc1 [Example 185, 4-(4-{(R)-2-[(S)-1-(2-fluorophenyl)-3-hydroxy-propylamino]-6,6-dimethyl-4,4-dioxo-5,6-dihydro-4H-4lambda6-[1,4,3]oxathiazin-5-yl}-phenyl)-pyridine-2-carbonitrile] | 4
10 | C[C@H](NC1=NS(=O)(=O)[C@@H](c2ccc(-c3ccnc(C#N)c3)cc2)C(C)(C)O1)c1ccccc1F [Example 186, 4-(4-{(S)-2-[(S)-1-(2-fluorophenyl)-ethylamino]-6,6-dimethyl-4,4-dioxo-5,6-dihydro-4H-4lambda6-[1,4,3]oxathiazin-5-yl}-phenyl)-pyridine-2-carbonitrile] | 11
11 | C[C@H](NC1=NS(=O)(=O)[C@H](c2ccc(-c3ccnc(C#N)c3)cc2)C(C)(C)O1)c1ccccc1F [Example 187, 4-(4-{(R)-2-[(S)-1-(2-fluorophenyl)-ethylamino]-6,6-dimethyl-4,4-dioxo-5,6-dihydro-4H-4lambda6-[1,4,3]oxathiazin-5-yl}-phenyl)-pyridine-2-carbonitrile] | 5
